What all share (format): in vivo
Experiment [1] has as its system sweet sensitive panelists. In words: Comparative sensory evaluation of sweetness enhancers in sweetener solution or water (Example 1). The procedure: Comparative sensory evaluation of sweetness enhancers in 2 or 7% sucrose
The test samples contained the potential sweetness enhancers in 0% sucrose (water), 2% sucrose, or 7% sucrose, and control samples of 0%, 2% and 7% sucrose without any additive. The sensory evaluations were conducted as follows. All samples were presented at ambient temperature in 15 ml aliquots to panels consisting of 5-9 sweet sensitive subjects of varying sweet sensitivity. After tasting each sample, the mouth was rinsed thoroughly with water at ambient temperature prior to tasting the next sample. The sucrose positive control (2% or 7%) was presented first and served as the sweetness reference to which all sweetness enhancer/sucrose combinations were directly compared.
One tasting sequence included tasting the sucrose control first, rinsing with water, tasting the sweetness enhancer/sucrose sample, rinsing with water followed by tasting the sucrose control again. Once the sequence was completed, each panelist chose the sample which was sweeter and evaluated the sweetness of each sample relative to one another.
In a second tasting sequence, this same procedure was followed for the water negative control versus the sweetness enhancer/water samples to determine the sweet taste due to the sweetness enhancer itself at each tested concentration.
Panelists evaluated the sweetness of the sweetness enhancer in water for each concentration. For their evaluation, panelists were allowed to compare any perceived sweetness of the sweetness enhancer to the 2% or 7% sucrose control to determine the relative intensity of sweetness. Mild sweet taste corresponds to the taste of 2% sucrose, strong sweet taste corresponds to the taste of 7% sucrose.
Alternatively to sucrose, the evaluation may be performed with another sweetener, for example, high fructose (55%) corn syrup (HFCS, containing 55% fructose and 45% glucose), erythritol, sucralose, aspartame, or acesulfame potassium (AceK).

Experiment [2] concerns sweet sensitive panelists. In words: Ranking test, sweetness isointensity of enhancer in sweetener solution (Example 3a). Here is the method: Ranking Tests to Determine the Sweetness Isointensity of Sweetness Enhancers to Sucrose Solutions
For comparative ranking, samples of 0.5%, 1%, 1.5%, 7%, 8%, 9%, 10% and 11% sucrose solutions were prepared.
3a) Sweetness Isointensity of Sweetness Enhancer in Sucrose Solutions
The sensory evaluation was conducted using a ranking method. Samples at ambient temperature were randomly presented in 15 ml blind aliquots (unidentifiable by panelists). Panels consisted of 10 sweet sensitive subjects and samples were presented in 4 replications over 2 sessions. After tasting each sample, the mouth was rinsed thoroughly with water at ambient temperature prior to tasting the next sample. Panelists were presented with 7%, 8%, 9%, 10%, 11% sucrose samples and a sixth sample of 7% sucrose with a sweetness enhancer in a concentration near its sweetness detection threshold. They were asked to rank the samples from low to high with respect to perceived sweet taste. R-indices were calculated for 7% sucrose with the sweetness enhancer versus 7%, 8%, 9%, 10% or 11% sucrose.

The subject of experiment [3] is sweet sensitive panelists. In words: Ranking test, near threshold sweetness isointensity of enhancer in water (Example 3b). The note with it: for isointensity to sucrose solution: 20 ppm in water, by interpolation. The procedure:
The sensory evaluation was conducted using a ranking method. Samples at ambient temperature were randomly presented in 15 ml blind aliquots (unidentifiable by panelists). […] After tasting each sample, the mouth was rinsed thoroughly with water at ambient temperature prior to tasting the next sample. […] They were asked to rank the samples from low to high with respect to perceived sweet taste.

The test system of experiment [4] is sweet sensitive panelists. In words: Paired comparison of sweetness enhancers in water versus sucrose (Example 4, modified). Here is the method:
Paired Comparisons of Sweetness Enhancers and Mixtures Thereof in Water and 7% Sucrose
Samples of sweetness enhancers were prepared in water or 7% sucrose. One, two or three sweetness enhancers were used in a sample. All samples were presented to panelists at ambient temperature. The sensory evaluation was conducted using a paired comparison method. […] Samples were paired randomly and presented in unidentifiable pairs of two (left and right) to the panelists in random order. The sample on the left was tasted first, followed by rinsing the mouth with water, then tasting the sample on the right. Once completing the sequence, each panelist ranked the pair of samples for sweetness then evaluated samples with respect to one another with the following descriptors (in ascending order): […]

The subject of the next experiment is sweet sensitive subjects. In words: Sweetness quality evaluation (time of onset, localization, duration). The note with it: for Sensory evaluation of sweetness intensity: sweetness quality. The procedure:
Rebaudioside A (99%+, purified from plant extract, Sweet Aloha Farms, LLC) (1 ppm, 10 ppm, 20 ppm, 30 ppm) in 2% sucrose samples was evaluated for the qualities of the sweetness of the samples (time of onset, localization, duration). The sensory evaluations were conducted as follows. All samples were presented at ambient temperature in 15 ml aliquots and presented blindly to sweet sensitive subjects of varying sweet sensitivity. Subjects tasted the samples and were asked to evaluate the quality of sweetness. Sucrose solutions (2% and 7%) were presented as references.
Rebaudioside A (99%+, purified from plant extract, Sweet Aloha Farms, LLC) (1 ppm, 10 ppm, 20 ppm, 30 ppm) in 7% sucrose samples were evaluated for the qualities of the sweetness of the samples (time of onset, localization, duration). The sensory evaluations were conducted as follows. All samples were presented at ambient temperature in 15 ml aliquots and presented blindly to sweet sensitive subjects of varying sweet sensitivity. Subjects tasted the samples and were asked to evaluate the quality of the sweetness. Sucrose solutions (2% and 7%) were presented as references to evaluate the sweetness of the rebaudioside A samples.
Stevioside extract (95%+, purified from plant extract, Apin Chemicals) (20 ppm, 30 ppm, 40 ppm, 50 ppm) was evaluated in 2% sucrose for the qualities of the sweetness of the samples (time of onset, localization, duration). The sensory evaluations were conducted as follows. All samples were presented at ambient temperature in 15 ml aliquots and presented blindly to sweet sensitive subjects of varying sweet sensitivity. Subjects tasted the samples and were asked to evaluate the sweetness qualities. Sucrose solutions (2% and 7%) were presented as references.
Stevioside (20 ppm, 30 ppm, 40 ppm, 50 ppm) was evaluated in 7% sucrose for the qualities of the sweetness of the samples (time of onset, localization, duration). The sensory evaluations were conducted as follows. All samples were presented at ambient temperature in 15 ml aliquots and presented blindly to sweet sensitive subjects of varying sweet sensitivity. Subjects tasted the samples and were asked to evaluate the sweetness qualities. Sucrose solutions (2% and 7%) were presented as references to evaluate the sweetness of the stevioside samples.

A further experiment has as its system panelists. In words: Fractionated swingle extract: comparative sensory evaluation in 0% and 2% sucrose. As to conditions: from fractions at 60 ppm in 2% sucrose and LC-MS analysis. The procedure: Swingle extract, comprising 80% total mogroside content by weight, was fractionated by reversed phase (C-18) flash chromatography. Compounds were eluted using a mixture of methanol (MeOH) in water starting at 30% MeOH (264 ml) followed by a linear gradient of 30-80% MeOH (1320 ml) then finally the column was flushed with 80% MeOH (264 ml). The solvents were introduced at a flow rate of 30 ml/min throughout the separation procedure. Eluted compounds were visualized with a UV detector set at 210 nm and a Corona light scattering detector. Collected fractions were pooled according to the table below then freeze dried to powders.
The powders corresponding to various pooled fractions as given in the table below were dissolved in a concentration of 60 ppm in either 0% or 2% sucrose. The sample in 0% sucrose when determined to be sweet was in addition to the 0% sucrose control also compared to a 2% sucrose control and to the other fractions to estimate the degree of sweetness.

Where [5] appears, read: 20 ppm in 7% sucrose vs 7% sucrose.
[6] abbreviates: 20 ppm in 7% sucrose vs 8% sucrose.
Setting [7] is: 20 ppm in 7% sucrose vs 9% sucrose.
Setting [8] is: 20 ppm in 7% sucrose vs 10% sucrose.
Where [9] appears, read: 20 ppm in 7% sucrose vs 11% sucrose.
[10] abbreviates: 20 ppm in water vs 0.5% sucrose.
Where [11] appears, read: 20 ppm in water vs 1.5% sucrose.

Results on three compounds are retold here after patent US20210015134A1, “CONSUMABLES” (Givaudan S.A., priority 2006, published 2021).

Structures are written as SMILES.

For `C=C1C[C@@]23CC[C@H]4[C@@](C)(CCC[C@@]4(C)C(=O)O[C@@H]4O[C@H](CO)[C@@H](O)[C@H](O)[C@H]4O)[C@@H]2CC[C@]1(O[C@@H]1O[C@H](CO)[C@@H](O)[C@H](O[C@@H]2O[C@H](CO)[C@@H](O)[C@H](O)[C@H]2O)[C@H]1O[C@@H]1O[C@H](CO)[C@@H](O)[C@H](O)[C@H]1O)C3` [Rebaudioside A], the “Sensory evaluation of sweetness intensity” value in experiment [1] (1 ppm in 2% sucrose) is reported as “barely perceived as sweeter than sucrose control”; in experiment [1] (1 ppm in 7% sucrose), “very weakly sweeter than sucrose control”; in experiment [1] (1 ppm in water (Example 8A)), “no sweetness”; in experiment [1] (1 ppm in water (Example 8B)), “no sweetness”; in experiment [1] (10 ppm in 2% sucrose), “notably sweeter than sucrose control”; in experiment [1] (10 ppm in 7% sucrose), “notably sweeter than sucrose control”. For the same compound, the “Sensory evaluation of sweetness intensity” value is given as “barely perceivable, late onsetting sweet” in experiment [1] (10 ppm in water (Example 8A)); “barely perceivable, late onsetting sweet” in experiment [1] (10 ppm in water (Example 8B)); “much sweeter than sucrose control” in experiment [1] (20 ppm in 2% sucrose); “much sweeter than sucrose control” in experiment [1] (20 ppm in 7% sucrose); “barely perceivable sweetness” in experiment [1] (20 ppm in water (Example 8A)); “barely perceivable sweetness” in experiment [1] (20 ppm in water (Example 8B)). Moreover, the “Sensory evaluation of sweetness intensity” value in experiment [1] (30 ppm in 2% sucrose) is “substantially sweeter than sucrose control”; in experiment [1] (30 ppm in 7% sucrose), “substantially sweeter than sucrose control”; in experiment [1] (30 ppm in water (Example 8A)), “very weak sweetness far below the 2% sucrose control”; in experiment [1] (30 ppm in water (Example 8B)) it was “very weak sweetness far below the 2% sucrose control”; in the experiment on sweet sensitive subjects (1 ppm in 2% sucrose) it was “immediate onset, full mouth sweet, non-lingering”; with sweet sensitive subjects (10 ppm in 2% sucrose), “immediate onset full mouth sweet, non-lingering”. In addition, in the experiment on sweet sensitive subjects (20 ppm in 2% sucrose), the “Sensory evaluation of sweetness intensity” value is “immediate onset, full mouth sweet, non-lingering”. The R-index in experiment [2] (setting [5]) came to 91%; in experiment [2] (setting [6]), 72%; in experiment [2] (setting [7]), 7%; in experiment [2] (setting [8]) it was 0%; in experiment [2] (setting [9]), 0%; in experiment [3] (setting [10]), 84%. Moreover, the R-index in experiment [3] (20 ppm in water vs 1% sucrose) worked out at 12%; in experiment [3] (setting [11]), 0%. Besides, the “Rebaudioside A sample sweetness” value in experiment [2] (setting [5]) was “sweeter”; in experiment [2] (setting [6]), “sweeter”; in experiment [2] (setting [7]) it was “less sweet”; in experiment [2] (setting [8]), “less sweet”; in experiment [2] (setting [9]) it was “less sweet”. In addition, the “sweetness isointensity to sucrose” value in experiment [2] (20 ppm in 7% sucrose, by interpolation) was determined as 8.5 % sucrose. Moreover, the “sample sweetness (RedA, 20 ppm)” value in experiment [3] (setting [10]) was “sweeter”; in experiment [3] (20 ppm in water vs 1% sucrose), “less sweet”; in experiment [3] (setting [11]) it was “less sweet”. Moreover, the “isointensity to sucrose solution” value is recorded as “about 0.75 % sucrose” in experiment [3] (listed as rebaudioside), 0.75 % sucrose in experiment [3] (listed as rebaudioside A) and 1 % sucrose in experiment [4] (30 ppm in water). The Result of comparison result is recorded as “isosweet” in experiment [4] (1 ppm in water vs 0% sucrose); “weakly sweeter” in experiment [4] (10 ppm in water vs 0% sucrose); “notably less sweet” in experiment [4] (10 ppm in water vs 0.5% sucrose); “notably sweeter” in experiment [4] (setting [10]); “less sweet” in experiment [4] (20 ppm in water vs 1% sucrose); “isosweet” in experiment [4] (30 ppm in water vs 1% sucrose). In addition, the Result of comparison entry in experiment [4] (30 ppm in water vs 1.5% sucrose) was “significantly less sweet”. Further, the “Sensory evaluation of sweetness intensity (strength, onset, localisation, duration)” value was “immediate onset, full mouth sweet, non-lingering” in the experiment on sweet sensitive subjects (1 ppm in 7% sucrose); “immediate onset, full mouth sweet, non-lingering” in the experiment on sweet sensitive subjects (10 ppm in 7% sucrose); “immediate onset, full mouth sweet, non-lingering” with sweet sensitive subjects (20 ppm in 7% sucrose).

With `C[C@H](CC[C@@H](O[C@@H]1O[C@H](CO[C@@H]2O[C@H](CO)[C@@H](O)[C@H](O)[C@H]2O)[C@@H](O)[C@H](O)[C@H]1O[C@@H]1O[C@H](CO)[C@@H](O)[C@H](O)[C@H]1O)C(C)(C)O)[C@H]1CC[C@@]2(C)[C@@H]3CC=C4[C@@H](CC[C@H](O[C@@H]5O[C@H](CO[C@@H]6O[C@H](CO)[C@@H](O)[C@H](O)[C@H]6O)[C@@H](O)[C@H](O)[C@H]5O)C4(C)C)[C@]3(C)[C@H](O)C[C@]12C` [mogroside V], in the experiment on panelists, the “contribution to the observed enhancement effect of swingle extract” value was “mainly due to mogroside V”.

As for `C[C@H](CC[C@@H](O[C@@H]1O[C@H](CO[C@@H]2O[C@H](CO)[C@@H](O)[C@H](O)[C@H]2O)[C@@H](O)[C@H](O)[C@H]1O[C@@H]1O[C@H](CO)[C@@H](O)[C@H](O)[C@H]1O)C(C)(C)O)[C@H]1CC[C@@]2(C)[C@@H]3CC=C4[C@@H](CC[C@H](O[C@@H]5O[C@H](CO)[C@@H](O)[C@H](O)[C@H]5O)C4(C)C)[C@]3(C)[C@H](O)C[C@]12C` [siamenoside I], in the experiment with panelists, the “contribution to the observed enhancement effect of swingle extract” value was “contributing marginally”.
